Experimental data from patent US20250129430A1, “HIGH ATP-AFFINITY PROTEIN AS THERAPEUTIC TARGET FOR INTRACTABLE CANCER MOLECULAR SUBTYPES AND INHIBITOR THEREOF” (VeraVerse Co., Ltd., priority 2021, published 2025).
Counter-ions that a name gives are not always drawn.

Tests used:
Assay in all cases: Cell viability drug screen, 12-point dose-response AUC
Type in all cases: cell-based, human
[1] = system: SNU620; conditions: SNU620 cells, 72 hours; for area under the viability curve (AUC), normalized: 12-point dose-response
Method in brief: (§1)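 Each cell line receives a twelve-point half-log titration of drug beginning 24 h after plating 5×10^3 cells per well. Following 72 h culture at 37 °C, luminescent signal is recorded and expressed versus vehicle. AUC is derived by the trapezoidal method.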

[2] = system: SNU638; conditions: SNU638 cells, 72 hours; for area under the viability curve (AUC), normalized: 12-point dose-response
Method in brief: as §1

[3] = system: SNU719; conditions: SNU719 cells, 72 hours; for area under the viability curve (AUC), normalized: 12-point dose-response
Method in brief: (§2)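 Gastric cancer lines seeded 5×10^3 cells/well, dosed after 24 h with half-log 12-point compound dilutions (DMSO 0.5% control), then 72 h at 37 °C. Viability by luminescence, normalized to DMSO; AUC by trapezoidal method, averaged over repeats.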

[4] = system: SK4; conditions: 72 hours; for area under the viability curve (AUC), normalized: SK4 cells, 12-point dose-response
Method in brief: as §1

[5] = system: SNU668; conditions: 72 hours; for area under the viability curve (AUC), normalized: SNU668 cells, 12-point dose-response
Method in brief: as §1

[6] = system: YCC11; conditions: 72 hours; for area under the viability curve (AUC), normalized: YCC11 cells, 12-point dose-response
Method in brief: as §1

[7] = system: SNU216; conditions: 72 hours; for area under the viability curve (AUC), normalized: SNU216 cells, 12-point dose-response
Method in brief: as §2

[8] = system: MKN28; conditions: MKN28 cells, 72 hours; for area under the viability curve (AUC), normalized: 12-point dose-response
Method in brief: as §1

[9] = system: YCC2; conditions: YCC2 cells, 72 hours; for area under the viability curve (AUC), normalized: 12-point dose-response
Method in brief: as §1

[10] = system: Hs746T; conditions: 72 hours; for area under the viability curve (AUC), normalized: Hs746T cells, 12-point dose-response
Method in brief: as §1

[11] = system: SNU16; conditions: SNU16 cells, 72 hours; for area under the viability curve (AUC), normalized: 12-point dose-response
Method in brief: as §1

[12] = system: NCC24; conditions: NCC24 cells, 72 hours; for area under the viability curve (AUC), normalized: 12-point dose-response
Method in brief: as §1

[13] = system: NCC19; conditions: NCC19 cells, 72 hours; for area under the viability curve (AUC), normalized: 12-point dose-response
Method in brief: as §1

[14] = system: YCC3; conditions: YCC3 cells, 72 hours; for area under the viability curve (AUC), normalized: 12-point dose-response
Method in brief: as §1

[15] = system: AGS; conditions: 72 hours; for area under the viability curve (AUC), normalized: AGS cells, 12-point dose-response
Method in brief: as §2

[16] = system: OCUM1; conditions: OCUM1 cells, 72 hours; for area under the viability curve (AUC), normalized: 12-point dose-response
Method in brief: as §1

[17] = system: SNU1750; conditions: 72 hours; for area under the viability curve (AUC), normalized: SNU1750 cells, 12-point dose-response
Method in brief: as §1

[18] = system: SNU601; conditions: SNU601 cells, 72 hours; for area under the viability curve (AUC), normalized: 12-point dose-response
Method in brief: as §1

[19] = system: SNU1967; conditions: SNU1967 cells, 72 hours; for area under the viability curve (AUC), normalized: 12-point dose-response
Method in brief: as §1

[20] = system: NCC20; conditions: NCC20 cells, 72 hours; for area under the viability curve (AUC), normalized: 12-point dose-response
Method in brief: as §1

[21] = system: SNU1; conditions: SNU1 cells, 72 hours; for area under the viability curve (AUC), normalized: 12-point dose-response
Method in brief: as §1

[22] = system: NCI_N87; conditions: NCI_N87 cells, 72 hours; for area under the viability curve (AUC), normalized: 12-point dose-response
Method in brief: as §1

[23] = system: SNU484; conditions: 72 hours; for area under the viability curve (AUC), normalized: SNU484 cells, 12-point dose-response
Method in brief: as §1

[24] = system: NCC59; conditions: NCC59 cells, 72 hours; for area under the viability curve (AUC), normalized: 12-point dose-response
Method in brief: as §1

[25] = system: MKN45; conditions: 72 hours; for area under the viability curve (AUC), normalized: MKN45 cells, 12-point dose-response
Method in brief: as §2

[26] = system: MKN1; conditions: MKN1 cells, 72 hours; for area under the viability curve (AUC), normalized: 12-point dose-response
Method in brief: as §1

[27] = system: MKN74; conditions: MKN74 cells, 72 hours; for area under the viability curve (AUC), normalized: 12-point dose-response
Method in brief: as §2

[28] = system: KATO3; conditions: KATO3 cells, 72 hours; for area under the viability curve (AUC), normalized: 12-point dose-response
Method in brief: as §1

[29] = system: FU97; set-up: Average Area Under the Viability Curve (AUC), AUC norm value: scale not given here; conditions: FU97 cells, 72 hours; for area under the viability curve (AUC), normalized: 12-point dose-response
Method in brief: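 Trapezoidal AUC of a 12-point, DMSO-normalized dose-response curve. Luminescent viability was measured after 72 h of exposure at 37° C to half-log serial dilutions (0.5% DMSO control), dosed 24 h after plating FU97 cells at 5×10^3 per well.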

## O=C1c2c(O)ccc(O)c2C(=O)c2c(NCCNCCO)ccc(NCCNCCO)c21 [Mitoxantrone Hydrochloride]
[1]
  area under the viability curve (AUC), normalized: −0.6012
[2]
  area under the viability curve (AUC), normalized: −1.06
[3]
  area under the viability curve (AUC), normalized: 3.647
[4]
  area under the viability curve (AUC), normalized: −0.6127
[5]
  area under the viability curve (AUC), normalized: −0.6581
[6]
  area under the viability curve (AUC), normalized: −1.252
[7]
  area under the viability curve (AUC), normalized: 1.1656
[8]
  area under the viability curve (AUC), normalized: 1.616
[9]
  area under the viability curve (AUC), normalized: 0.5126
[10]
  area under the viability curve (AUC), normalized: 0.5925
[11]
  area under the viability curve (AUC), normalized: 1.6
[12]
  area under the viability curve (AUC), normalized: −1.038
[13]
  area under the viability curve (AUC), normalized: 2.884
[14]
  area under the viability curve (AUC), normalized: 2.27
[15]
  area under the viability curve (AUC), normalized: −1.671
[16]
  area under the viability curve (AUC), normalized: 0.8078
[17]
  area under the viability curve (AUC), normalized: −0.3587
[18]
  area under the viability curve (AUC), normalized: −0.5251
[19]
  area under the viability curve (AUC), normalized: −1.342
[20]
  area under the viability curve (AUC), normalized: −0.7422
[21]
  area under the viability curve (AUC), normalized: 0
[22]
  area under the viability curve (AUC), normalized: 2.6755
[23]
  area under the viability curve (AUC), normalized: −1.158
[24]
  area under the viability curve (AUC), normalized: 1.001
[25]
  area under the viability curve (AUC), normalized: 2.014
[26]
  area under the viability curve (AUC), normalized: −1.197
[27]
  area under the viability curve (AUC), normalized: −0.2914
[28]
  area under the viability curve (AUC), normalized: 4.807
[29]
  area under the viability curve (AUC), normalized: 0.4542

## CC(C)C[C@H](NC(=O)[C@H](Cc1ccccc1)NC(=O)c1cnccn1)B(O)O [Bortezomib (Velcade), Bortezomib]
[1]
  area under the viability curve (AUC), normalized: −0.6115
[2]
  area under the viability curve (AUC), normalized: 0.06564
[3]
  area under the viability curve (AUC), normalized: 1.081
[4]
  area under the viability curve (AUC), normalized: 0.3944
[5]
  area under the viability curve (AUC), normalized: 1.358
[6]
  area under the viability curve (AUC), normalized: −0.6649
[7]
  area under the viability curve (AUC), normalized: 0.4223
[8]
  area under the viability curve (AUC), normalized: −0.416
[9]
  area under the viability curve (AUC), normalized: 0.6953
[10]
  area under the viability curve (AUC), normalized: −0.9394
[11]
  area under the viability curve (AUC), normalized: −0.0987
[12]
  area under the viability curve (AUC), normalized: −0.3911
[13]
  area under the viability curve (AUC), normalized: −0.6969
[14]
  area under the viability curve (AUC), normalized: 2.791
[15]
  area under the viability curve (AUC), normalized: −0.1894
[16]
  area under the viability curve (AUC), normalized: 2.346
[17]
  area under the viability curve (AUC), normalized: −1.326
[18]
  area under the viability curve (AUC), normalized: −0.07383
[19]
  area under the viability curve (AUC), normalized: −0.8453
[20]
  area under the viability curve (AUC), normalized: −0.1078
[21]
  area under the viability curve (AUC), normalized: −0.3028
[22]
  area under the viability curve (AUC), normalized: 1.569
[23]
  area under the viability curve (AUC), normalized: −0.6338
[24]
  area under the viability curve (AUC), normalized: 0.8821
[25]
  area under the viability curve (AUC), normalized: 0.1641
[26]
  area under the viability curve (AUC), normalized: 0.3149
[27]
  area under the viability curve (AUC), normalized: 0
[28]
  area under the viability curve (AUC), normalized: 1.082
[29]
  area under the viability curve (AUC), normalized: 0.01494

## CC[C@]1(O)C[C@@H]2CN(CCc3c([nH]c4ccccc34)[C@@](C(=O)OC)(c3cc4c(cc3OC)N(C)[C@H]3[C@@](O)(C(=O)OC)[C@H](OC(C)=O)[C@]5(CC)C=CCN6CC[C@]43[C@@H]65)C2)C1 [Vinblastine]
[1]
  Average Area Under the Viability Curve (AUC), AUC norm value: −0.4909
[2]
  Average Area Under the Viability Curve (AUC), AUC norm value: 0.2652
[3]
  Average Area Under the Viability Curve (AUC), AUC norm value: 4.162
[4]; SK4 cells (SEM subtype)
  Average Area Under the Viability Curve (AUC), AUC norm value: −1.0813
[5]; SNU668 cells (SEM subtype)
  Average Area Under the Viability Curve (AUC), AUC norm value: −1.037
[6]; YCC11 cells (SEM subtype)
  Average Area Under the Viability Curve (AUC), AUC norm value: −0.6159
[7]; SNU216 cells (non-SEM subtype)
  Average Area Under the Viability Curve (AUC), AUC norm value: 2.539
[8]
  Average Area Under the Viability Curve (AUC), AUC norm value: −0.818
[9]
  Average Area Under the Viability Curve (AUC), AUC norm value: 2.06
[10]; Hs746T cells (SEM subtype)
  Average Area Under the Viability Curve (AUC), AUC norm value: 1.1779
[11]
  Average Area Under the Viability Curve (AUC), AUC norm value: −1.3
[12]
  Average Area Under the Viability Curve (AUC), AUC norm value: −0.9438
[13]
  Average Area Under the Viability Curve (AUC), AUC norm value: 2.905
[14]
  Average Area Under the Viability Curve (AUC), AUC norm value: 4.54
[15]; AGS cells (non-SEM subtype)
  Average Area Under the Viability Curve (AUC), AUC norm value: −1.129
[16]
  Average Area Under the Viability Curve (AUC), AUC norm value: 2.514
[17]; SNU1750 cells (SEM subtype)
  Average Area Under the Viability Curve (AUC), AUC norm value: 0.6497
[18]
  Average Area Under the Viability Curve (AUC), AUC norm value: 0
[19]
  Average Area Under the Viability Curve (AUC), AUC norm value: −0.9411
[20]
  Average Area Under the Viability Curve (AUC), AUC norm value: −1.614
[21]
  Average Area Under the Viability Curve (AUC), AUC norm value: −0.3949
[22]
  Average Area Under the Viability Curve (AUC), AUC norm value: −0.1721
[23]; SNU484 cells (SEM subtype)
  Average Area Under the Viability Curve (AUC), AUC norm value: −1.194
[24]
  Average Area Under the Viability Curve (AUC), AUC norm value: 2.833
[25]; MKN45 cells (non-SEM subtype)
  Average Area Under the Viability Curve (AUC), AUC norm value: 1.844
[26]
  Average Area Under the Viability Curve (AUC), AUC norm value: −0.9285
[27]
  Average Area Under the Viability Curve (AUC), AUC norm value: 0.6639
[28]
  Average Area Under the Viability Curve (AUC), AUC norm value: 4.096
[29]
  Average Area Under the Viability Curve (AUC), AUC norm value: 0.3772
